Results taken from patent US12599685B2, “Tumor stroma imaging agent and preparation method thereof” (SHANGHAI UNIVERSITY OF MEDICINE & HEALTH SCIENCES, priority 2020, dated 2026).

What was measured:
HT-1080-FAP cell line = experiment: Cell binding experiment of (S)-[18F]-AlF-NOTA-Bn-FAPI-4; type: cell-based, human; conditions: 1 h incubation
Description: (S)—[^18F]—AlF-NOTA-Bn-FAPI-4 was adopted as an experimental group, AlF-FAPI-75+(S)—[^18F]—AlF-NOTA-Bn-FAPI-4 was adopted as a blockage group, and free ^18F^− was adopted as a control group.
A human fibrosarcoma cell HT-1080-FAP (HT-1080-FAP cell line) transfected by an FAP gene was activated to obtain an HT-1080-FAP cell suspension.
(§1) The experimental group: 2 mL of the HT-1080-FAP cell suspension was taken and washed three times with frozen PBS. A complete medium including the imaging agent (S)—[^18F]—AlF-NOTA-Bn-FAPI-4 (2.96 MBq, 80 μCi) was added, and the resulting mixture was incubated for 1 h. The cells were washed three times with frozen PBS, and 0.5 mL of NaOH-sodium dodecyl sulfate (SDS) (1M NaOH, 1% SDS) was added for lysis. The resulting cell lysate was finally collected, placed in a marked γ-counting tube, and subjected to γ-counting.
as §1, with “blockage” for “experimental”, “PBS. A complete medium including the blocker AlF-FAPI-75 was added, and the resulting mixture was incubated for 0.5 h.” for “PBS.”, “NaOH-SDS (1 M” for “NaOH-sodium dodecyl sulfate (SDS) (1M”
The control group: 2 mL of the HT-1080-FAP cell suspension was taken and washed three times with frozen PBS. A complete medium including the free ^18F^− (2.96 MBq, 80 μCi) was added, and the resulting mixture was incubated for 1 h. The cells were washed three times with frozen PBS, and 0.5 mL of NaOH-SDS (1 M NaOH, 1% SDS) was added for lysis. The resulting cell lysate was finally collected, placed in a marked γ-counting tube, and subjected to γ-counting. The final volumes of the groups were the same.

tumor-bearing mice = experiment: Biodistribution in tumor-bearing mice; type: in vivo
Description: Six mice were divided into an experimental group and a blockage group with 3 mice in each group. Mice in the experimental group each were injected with (S)—[^18F]—AlF-NOTA-Bn-FAPI-4 (3.7 MBq, 100 μCi) through a tail vein within 1 min, and 60 min later, the mice each were sacrificed by cutting a carotid artery for bloodletting. Mice in the blockage group each were injected with 100 μg of the blocker AlF-FAPI-75 (1,000 μg/mL) through a tail vein and injected with (S)—[^18F]—AlF-NOTA-Bn-FAPI-4 (3.7 MBq, 100 μCi) through a tail vein 30 min later, and 60 min later, the mice each were sacrificed by cutting a carotid artery for bloodletting. The heart, liver, lung, kidney, spleen, brain, and the like were collected, weighed, and tested for radioactivity. Finally, an (S)—[^18F]—AlF-NOTA-Bn-FAPI-4 radioactivity uptake rate (a percentage of uptake radioactivity per gram of tissue in the injected radioactivity, ID/g) in each of blood and various organs and a radioactivity ratio of a target organ to a non-target organ (T/NT) were calculated at different time points.

[1] = blockage group: 100 μg AlF-FAPI-75 i.v. 30 min before tracer, 1 h after injection
[2] = experimental group, 1 h after tail vein injection, 3.7 MBq
[3] = tumor-bearing mice, 1 h after injection

Substance: (S)—[^18F]—AlF-NOTA-Bn-FAPI-4
- absorption of tumor cells, experimental group relative to blockage group (HT-1080-FAP cell line; t=6.713, P<0.05): 3 times
- absorption of tumor cells, experimental group relative to control group (free 18F-) (HT-1080-FAP cell line; t=8.934, P<0.01): 33.31 times
- Radioactivity count value (HT-1080-FAP cell line; HT-1080-FAP cells, 2.96 MBq (80 μCi), no blocker): 5999.98 ± 864.12 γ count value/min
- Radioactivity count value (HT-1080-FAP cell line; blockage group: blocker AlF-FAPI-75 incubated 0.5 h, then imaging agent 2.96 MBq): 2000.01 ± 113.34 γ count value/min
- Distribution, Blood (tumor-bearing mice; [1]): 0.13±0.10 % ID/g
- Distribution, Bone (tumor-bearing mice; [1]): 0.06 ± 0.01 % ID/g
- Distribution, Brain (tumor-bearing mice; [1]): 0.03 ± 0.01 % ID/g
- Distribution, Heart (tumor-bearing mice; [1]): 0.08 ± 0.05 % ID/g
- Distribution, Intestine (tumor-bearing mice; [1]): 0.16 ± 0.02 % ID/g
- Distribution, Kidney (tumor-bearing mice; [1]): 0.84±0.21 % ID/g
- Distribution, Liver (tumor-bearing mice; [1]): 0.08 ± 0.04 % ID/g
- Distribution, Lung (tumor-bearing mice; [1]): 0.28 ± 0.19 % ID/g
- Distribution, Muscle (tumor-bearing mice; [1]): 0.09 ± 0.03 % ID/g
- Distribution, Spleen (tumor-bearing mice; [1]): 0.16 ± 0.14 % ID/g
- Distribution, Tumor (tumor-bearing mice; [1]): 0.22±0.05 % ID/g
- Distribution, Blood (tumor-bearing mice; [2]): 0.10±0.04 % ID/g
- Distribution, Bone (tumor-bearing mice; [2]): 0.15 ± 0.03 % ID/g
- Distribution, Brain (tumor-bearing mice; [2]): 0.02 ± 0.01 % ID/g
- Distribution, Heart (tumor-bearing mice; [2]): 0.09 + 0.09 % ID/g
- Distribution, Intestine (tumor-bearing mice; [2]): 0.19 ± 0.06 % ID/g
- Distribution, Kidney (tumor-bearing mice; [2]): 0.94±0.20 % ID/g
- Distribution, Liver (tumor-bearing mice; [2]): 0.07 ± 0.05 % ID/g
- Distribution, Lung (tumor-bearing mice; [2]): 0.16 ± 0.08 % ID/g
- Distribution, Muscle (tumor-bearing mice; [2]): 0.16 ± 0.05 % ID/g
- Distribution, Spleen (tumor-bearing mice; [2]): 0.10 ± 0.01 % ID/g
- Distribution, Tumor (tumor-bearing mice; [2]): 1.12±0.06 % ID/g
- clearance in the blood (tumor-bearing mice; [3]): quickly cleared in the blood
- route of excretion (tumor-bearing mice; [3]): mainly excreted by the kidney
